PubChem BioAssay AID1259407 (Chemical Carcinogenesis Research Information System (CCRIS), 2018)
Activity calls are given as the source filed them. The rule behind the calls is not given here.

System: CCRIS mutagenicity, Ames/micronucleus/aberration tests
Test: CCRIS mutagenicity studies
[1] = Test System: AMES SALMONELLA TYPHIMURIUM, Strain/Indicator: TA98, Metabolic Activation: NONE, Method: STANDARD PLATE
[2] = Test System: AMES SALMONELLA TYPHIMURIUM, Strain/Indicator: TA100, Metabolic Activation: NONE, Method: STANDARD PLATE
[3] = Test System: AMES SALMONELLA TYPHIMURIUM, Strain/Indicator: TA1535, Metabolic Activation: NONE, Method: STANDARD PLATE
[4] = Test System: AMES SALMONELLA TYPHIMURIUM, Strain/Indicator: TA1537, Metabolic Activation: NONE, Method: STANDARD PLATE
[5] = Test System: AMES SALMONELLA TYPHIMURIUM, Strain/Indicator: TA1538, Metabolic Activation: NONE, Method: STANDARD PLATE
[6] = Test System: AMES SALMONELLA TYPHIMURIUM, Strain/Indicator: TA100, Metabolic Activation: NONE, Method: PREINCUBATION
[7] = Test System: AMES SALMONELLA TYPHIMURIUM, Strain/Indicator: TA100, Metabolic Activation: RAT, LIVER, S-9, PCB, Method: PREINCUBATION
[8] = Test System: AMES SALMONELLA TYPHIMURIUM, Strain/Indicator: TA98, Metabolic Activation: NONE, Method: PREINCUBATION
[9] = Test System: AMES SALMONELLA TYPHIMURIUM, Strain/Indicator: TA98, Metabolic Activation: HAMSTER, LIVER, S-9, AROCLOR 1254, Method: STANDARD PLATE
[10] = Test System: AMES SALMONELLA TYPHIMURIUM, Strain/Indicator: TA98, Metabolic Activation: RAT, LIVER, S-9, AROCLOR 1254, Method: STANDARD PLATE
[11] = Test System: AMES SALMONELLA TYPHIMURIUM, Strain/Indicator: TA100, Metabolic Activation: HAMSTER, LIVER, S-9, AROCLOR 1254, Method: STANDARD PLATE
[12] = Test System: AMES SALMONELLA TYPHIMURIUM, Strain/Indicator: TA100, Metabolic Activation: RAT, LIVER, S-9, AROCLOR 1254, Method: STANDARD PLATE
[13] = Test System: MOUSE LYMPHOMA, Strain/Indicator: L5178Y (TK+/TK-), Metabolic Activation: NONE, Method: SUSPENSION/PLATE
[14] = Test System: MOUSE LYMPHOMA, Strain/Indicator: L5178Y (TK+/TK-), Metabolic Activation: RAT, LIVER, S-9, AROCLOR 1254, Method: SUSPENSION/PLATE

ClCCNCCCNc1c2ccccc2nc2ccccc12
mutagenic call [1]: active; positive
mutagenic call [2]: active; positive
mutagenic call [3]: active; positive
mutagenic call (Test System: AMES SALMONELLA TYPHIMURIUM, Strain/Indicator: TA1536, Metabolic Activation: NONE, Method: STANDARD PLATE): active; positive
mutagenic call [4]: active; positive
mutagenic call [5]: active; positive

C[C@]12CC[C@@H]3c4ccc(O)c(O)c4CC[C@H]3[C@@H]1CC[C@@H]2O
mutagenic call (Test System: Ames Salmonella Typhimurium, Strain/Indicator: TA98, Metabolic Activation: None, Method: Standard plate): inactive; negative
mutagenic call (Test System: Ames Salmonella Typhimurium, Strain/Indicator: TA98, Metabolic Activation: Rat, liver, S-9 (0.5 ml), Method: Standard plate): inactive; negative
mutagenic call (Test System: Ames Salmonella Typhimurium, Strain/Indicator: TA100, Metabolic Activation: None, Method: Standard plate): inactive; negative
mutagenic call (Test System: Ames Salmonella typhimurium, Strain/Indicator: TA100, Metabolic Activation: Rat, liver, S-9, Method: Standard plate): inactive; negative

CCCCN(N=O)/C(C=O)=N/O
mutagenic call [3]: active; positive
mutagenic call (Test System: E. COLI, Strain/Indicator: WP2 (HCR-), Metabolic Activation: NONE, Method: STANDARD PLATE): active; positive

COC(=O)[C@H](C)Cl
mutagenic call [6]: inactive; negative
mutagenic call [7]: inactive; negative

COC(=O)/C=C/c1ccc([N+](=O)[O-])o1
mutagenic call [8]: active; positive

CNc1ccc2nc(C)c(C)nc2c1C
mutagenic call [8]: inactive; negative
mutagenic call (Test System: AMES SALMONELLA TYPHIMURIUM, Strain/Indicator: TA98, Metabolic Activation: RAT, LIVER, S-9, PCB, Method: PREINCUBATION): active; positive
mutagenic call [6]: inactive; negative
mutagenic call [7]: active; positive

COC1=CC(=O)C=CC1=Nc1c2ccccc2nc2ccccc12
mutagenic call [4]: inactive; negative

Nc1ccn([C@H]2CC[C@@H](CO)O2)c(=O)n1
mutagenic call [9]: inactive; negative
mutagenic call [1]: inactive; negative
mutagenic call [10]: inactive; negative
mutagenic call [11]: inactive; negative
mutagenic call [2]: inactive; negative
mutagenic call [12]: inactive; negative
mutagenic call (Test System: MOUSE LYMPHOMA, Strain/Indicator: L5178Y (TK+/TK-), Metabolic Activation: NONE, Method: MICROWELL): inactive; negative
mutagenic call [13]: inactive; negative. reevaluation of results: negative
mutagenic call [14]: inactive; negative. reevaluation of results: negative
mutagenic call (Test System: MOUSE LYMPHOMA, Strain/Indicator: L5178Y (TK+/TK-), Metabolic Activation: S-9, Method: MICROWELL): inactive; negative

CCC/C=N/O
mutagenic call [9]: inactive; negative
mutagenic call [1]: inactive; negative
mutagenic call [10]: inactive; negative
mutagenic call [11]: inactive; negative
mutagenic call [2]: inactive; negative
mutagenic call [12]: inactive; negative
mutagenic call (Test System: AMES SALMONELLA TYPHIMURIUM, Strain/Indicator: TA1535, Metabolic Activation: HAMSTER, LIVER, S-9, AROCLOR 1254, Method: STANDARD PLATE): inactive; negative
mutagenic call [3]: inactive; negative
mutagenic call (Test System: AMES SALMONELLA TYPHIMURIUM, Strain/Indicator: TA1535, Metabolic Activation: RAT, LIVER, S-9, AROCLOR 1254, Method: STANDARD PLATE): inactive; negative
mutagenic call (Test System: AMES SALMONELLA TYPHIMURIUM, Strain/Indicator: TA1537, Metabolic Activation: HAMSTER, LIVER, S-9, AROCLOR 1254, Method: STANDARD PLATE): inactive; negative
mutagenic call [4]: inactive; negative
mutagenic call (Test System: AMES SALMONELLA TYPHIMURIUM, Strain/Indicator: TA1537, Metabolic Activation: RAT, LIVER, S-9, AROCLOR 1254, Method: STANDARD PLATE): inactive; negative
mutagenic call (Test System: AMES SALMONELLA TYPHIMURIUM, Strain/Indicator: TA1538, Metabolic Activation: HAMSTER, LIVER, S-9, AROCLOR 1254, Method: STANDARD PLATE): inactive; negative
mutagenic call [5]: inactive; negative
mutagenic call (Test System: AMES SALMONELLA TYPHIMURIUM, Strain/Indicator: TA1538, Metabolic Activation: RAT, LIVER, S-9, AROCLOR 1254, Method: STANDARD PLATE): inactive; negative
mutagenic call [13]: active; positive. reevaluation of results: positive
mutagenic call [14]: inactive; negative. reevaluation of results: negative

O=c1[nH]c(=O)c2[nH]cnc2[nH]1
mutagenic call [13]: inactive; negative

Cn1cnc(-c2ccccc2)c1[N+](=O)[O-]
mutagenic call [2]: active; positive

CC(C)NO
mutagenic call (Test System: CHINESE HAMSTER V-79, Strain/Indicator: V-79/6-THIOGUANINE, Metabolic Activation: NONE, Method: SUSPENSION): active; positive
mutagenic call (Test System: UDS RODENT HEPATOCYTES, Strain/Indicator: THY INCORP (NON-S-PHASE), Metabolic Activation: NONE, Method: LIQUID SCINTILLATION COUNTING): inactive; negative

c1ccc2cc3c(ccc4ccncc43)cc2c1
mutagenic call [1]: inactive; negative
mutagenic call [10]: active; positive
mutagenic call [12]: active; positive

C=CCCCCCCCCCCCCC
mutagenic call (Test System: AMES SALMONELLA TYPHIMURIUM, Strain/Indicator: TA98, Metabolic Activation: MOUSE, LIVER, S-9, Method: STANDARD PLATE): inactive; negative
mutagenic call [1]: inactive; negative
mutagenic call (Test System: AMES SALMONELLA TYPHIMURIUM, Strain/Indicator: TA100, Metabolic Activation: MOUSE, LIVER, S-9, Method: STANDARD PLATE): inactive; negative
mutagenic call [2]: inactive; negative
mutagenic call [3]: inactive; negative
mutagenic call [5]: inactive; negative

CN(C)C(=S)SNCCNSC(=S)N(C)C
mutagenic call [2]: active; positive
mutagenic call (Test System: AMES SALMONELLA TYPHIMURIUM, Strain/Indicator: TA100, Metabolic Activation: S-9 MIX, Method: STANDARD PLATE): inactive; negative
